# Measured values from PubChem BioAssay (NCI).
#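 These data come from cells grown in 96-well plates and exposed to compound for 48 hours at five concentrations. Here, GI50 denotes the concentration required for 50% inhibition of growth. TGI denotes the concentration required for complete inhibition of growth.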
# Legend:
# Experiment in all cases: NCI-60 cell line screen, 48 h
# [1] = tested on: SF-268 CNS
# [2] = tested on: CCRF-CEM leukemia
# [3] = tested on: HCC-2998 colon
# [4] = tested on: T-47D breast
# [5] = tested on: BT-549 breast
# [6] = tested on: U251 CNS
# [7] = tested on: NCI/ADR-RES ovarian
# [8] = tested on: OVCAR-4 ovarian
# [9] = tested on: MALME-3M melanoma
# [10] = tested on: UACC-257 melanoma
# [11] = tested on: 786-0 renal
# [12] = tested on: MDA-N
# [13] = tested on: K-562 leukemia
# [14] = tested on: M14 melanoma
# [15] = tested on: OVCAR-5 ovarian
# [16] = tested on: SNB-19 CNS
# [17] = tested on: DU-145 prostate
# [18] = tested on: TK-10 renal
# [19] = tested on: HL-60(TB) leukemia
# [20] = tested on: LOX IMVI melanoma
# [21] = tested on: RPMI-8226 leukemia
# [22] = tested on: IGROV1 ovarian
# [23] = tested on: COLO 205 colon
# [24] = tested on: NCI-H226 lung
# [25] = tested on: MOLT-4 leukemia
# [26] = tested on: NCI-H23 lung
# [27] = tested on: SK-MEL-28 melanoma
# [28] = tested on: HS 578T breast
# [29] = tested on: OVCAR-3 ovarian
# [30] = tested on: RXF 393 renal
# [31] = tested on: MDA-MB-231 breast
# [32] = tested on: NCI-H460 lung
# [33] = tested on: HCT-15 colon
# [34] = tested on: HT29 colon
# [35] = tested on: HOP-92 NSCLC
# [36] = tested on: CAKI-1 renal
# [37] = tested on: SK-OV-3 ovarian
# [38] = tested on: ACHN renal
# [39] = tested on: SN12C renal
# [40] = tested on: MDA-MB-435
# [41] = tested on: NCI-H522 lung
# [42] = tested on: SNB-75 CNS
# [43] = tested on: PC-3 prostate
# [44] = tested on: OVCAR-8 ovarian
# [45] = tested on: SF-295 CNS
# [46] = tested on: HCT-116 colon
# [47] = tested on: SW-620 colon
# [48] = tested on: SF-539 CNS
# [49] = tested on: A549 NSCLC
# [50] = tested on: KM12 colon
# [51] = tested on: SK-MEL-5 melanoma
# [52] = tested on: SR leukemia
# [53] = tested on: HOP-62 NSCLC
# [54] = tested on: SK-MEL-2 melanoma
# [55] = tested on: MCF7 breast
# [56] = tested on: UACC-62 melanoma
# [57] = tested on: EKVX NSCLC
# [58] = tested on: A498 renal
# [59] = tested on: UO-31 renal
compound,measurement,setting,value
Cc1ccc(C2SC(N)=Nc3c2c(C)nn3C(=O)c2ccncc2)cc1 (centres undefined),TGI,[1],> 10 µM
same,TGI,[2],> 10 µM
same,TGI,[3],> 10 µM
same,TGI,[4],> 10 µM
same,TGI,[5],> 10 µM
same,TGI,[6],> 10 µM
same,TGI,[7],> 10 µM
same,TGI,[8],> 10 µM
same,TGI,[9],> 10 µM
same,TGI,[10],> 10 µM
same,TGI,[11],> 10 µM
same,TGI,[12],> 10 µM
same,TGI,[13],> 10 µM
same,TGI,[14],> 10 µM
same,TGI,[15],> 10 µM
same,TGI,[16],> 10 µM
same,TGI,[17],> 10 µM
same,TGI,[18],> 10 µM
same,TGI,[19],> 10 µM
same,TGI,[20],> 10 µM
same,TGI,[21],> 10 µM
same,TGI,[22],> 10 µM
same,TGI,[23],> 10 µM
same,TGI,[24],> 10 µM
same,TGI,[25],> 10 µM
same,TGI,[26],> 10 µM
same,TGI,[27],> 10 µM
same,TGI,[28],> 10 µM
same,TGI,[29],> 10 µM
same,TGI,[30],> 10 µM
same,TGI,[31],> 10 µM
same,TGI,[32],> 10 µM
same,TGI,[33],> 10 µM
same,TGI,[34],> 10 µM
same,TGI,[35],> 10 µM
same,TGI,[36],> 10 µM
same,TGI,[37],> 10 µM
same,TGI,[38],> 10 µM
same,TGI,[39],> 10 µM
same,TGI,[40],> 10 µM
same,TGI,[41],> 10 µM
same,TGI,[42],> 10 µM
same,TGI,[43],> 10 µM
same,TGI,[44],> 10 µM
same,TGI,[45],> 10 µM
same,TGI,[46],> 10 µM
same,TGI,[47],> 10 µM
same,TGI,[48],> 10 µM
same,TGI,[49],> 10 µM
same,TGI,[50],> 10 µM
same,TGI,[51],> 10 µM
same,TGI,[52],> 10 µM
same,TGI,[53],> 10 µM
same,TGI,[54],> 10 µM
same,TGI,[55],> 10 µM
same,TGI,[56],> 10 µM
NC1=C(c2nc(-c3cc4ccccc4oc3=O)cs2)C(c2ccco2)c2c(c3ccccc3oc2=O)O1 (centres undefined),GI50,[1],68.4 µg/mL
same,TGI,[1],> 150 µg/mL
same,GI50,[2],53.8 µg/mL
same,TGI,[2],147 µg/mL
same,GI50,[3],> 150 µg/mL
same,TGI,[3],> 150 µg/mL
same,GI50,[4],> 150 µg/mL
same,TGI,[4],> 150 µg/mL
same,GI50,[57],69.7 µg/mL
same,TGI,[57],> 150 µg/mL
same,GI50,[6],21.7 µg/mL
same,TGI,[6],58.4 µg/mL
same,GI50,[7],> 150 µg/mL
same,TGI,[7],> 150 µg/mL
same,GI50,[58],66.1 µg/mL
same,TGI,[58],> 150 µg/mL
same,GI50,[8],68.3 µg/mL
same,TGI,[8],> 150 µg/mL
same,GI50,[9],120 µg/mL
same,TGI,[9],> 150 µg/mL
same,GI50,[10],> 150 µg/mL
same,TGI,[10],> 150 µg/mL
same,GI50,[11],20.2 µg/mL
same,TGI,[11],71.3 µg/mL
same,GI50,[12],> 150 µg/mL
same,TGI,[12],> 150 µg/mL
same,GI50,[13],95.9 µg/mL
same,TGI,[13],> 150 µg/mL
same,GI50,[14],100 µg/mL
same,TGI,[14],> 150 µg/mL
same,GI50,[15],> 150 µg/mL
same,TGI,[15],> 150 µg/mL
same,GI50,[16],53.1 µg/mL
same,TGI,[16],> 150 µg/mL
same,GI50,[17],> 150 µg/mL
same,TGI,[17],> 150 µg/mL
same,GI50,[18],46.4 µg/mL
same,TGI,[18],87.6 µg/mL
same,GI50,[19],> 150 µg/mL
same,TGI,[19],> 150 µg/mL
same,GI50,[20],> 150 µg/mL
same,TGI,[20],> 150 µg/mL
same,GI50,[22],> 150 µg/mL
same,TGI,[22],> 150 µg/mL
same,GI50,[23],> 150 µg/mL
same,TGI,[23],> 150 µg/mL
same,GI50,[24],43.1 µg/mL
same,TGI,[24],131 µg/mL
same,GI50,[25],119 µg/mL
same,TGI,[25],> 150 µg/mL
same,GI50,[26],> 150 µg/mL
same,TGI,[26],> 150 µg/mL
same,GI50,[27],> 150 µg/mL
same,TGI,[27],> 150 µg/mL
same,GI50,[28],39.6 µg/mL
same,TGI,[28],139 µg/mL
same,GI50,[29],> 150 µg/mL
same,TGI,[29],> 150 µg/mL
same,GI50,[30],17.3 µg/mL
same,TGI,[30],114 µg/mL
same,GI50,[31],75.7 µg/mL
same,TGI,[31],> 150 µg/mL
same,GI50,[32],> 150 µg/mL
same,TGI,[32],> 150 µg/mL
same,GI50,[33],> 150 µg/mL
same,TGI,[33],> 150 µg/mL
same,GI50,[34],> 150 µg/mL
same,TGI,[34],> 150 µg/mL
same,GI50,[35],53.3 µg/mL
same,TGI,[35],> 150 µg/mL
same,GI50,[36],> 150 µg/mL
same,TGI,[36],> 150 µg/mL
same,GI50,[37],51.4 µg/mL
same,TGI,[37],> 150 µg/mL
same,GI50,[38],36.3 µg/mL
same,TGI,[38],> 150 µg/mL
same,GI50,[39],> 150 µg/mL
same,TGI,[39],> 150 µg/mL
same,GI50,[40],> 150 µg/mL
same,TGI,[40],> 150 µg/mL
same,GI50,[41],> 150 µg/mL
same,TGI,[41],> 150 µg/mL
same,GI50,[43],> 150 µg/mL
same,TGI,[43],> 150 µg/mL
same,GI50,[44],> 150 µg/mL
same,TGI,[44],> 150 µg/mL
same,GI50,[45],130 µg/mL
same,TGI,[45],> 150 µg/mL
same,GI50,[46],> 150 µg/mL
same,TGI,[46],> 150 µg/mL
same,GI50,[47],> 150 µg/mL
same,TGI,[47],> 150 µg/mL
same,GI50,[48],96.9 µg/mL
same,TGI,[48],> 150 µg/mL
same,GI50,[49],> 150 µg/mL
same,TGI,[49],> 150 µg/mL
same,GI50,[50],> 150 µg/mL
same,TGI,[50],> 150 µg/mL
same,GI50,[51],> 150 µg/mL
same,TGI,[51],> 150 µg/mL
same,GI50,[52],51.9 µg/mL
same,TGI,[52],> 150 µg/mL
same,GI50,[53],22.4 µg/mL
same,TGI,[53],81.1 µg/mL
same,GI50,[54],43.6 µg/mL
same,TGI,[54],112 µg/mL
same,GI50,[55],> 150 µg/mL
same,TGI,[55],> 150 µg/mL
same,GI50,[56],112 µg/mL
same,TGI,[56],> 150 µg/mL
COc1cc2cc(C(=O)N3CC(COS(C)(=O)=O)c4c3cc([N+](=O)[O-])c3ccccc43)[nH]c2c(OC)c1OC (centres undefined),TGI,[1],> 31.6 µM
same,TGI,[2],> 31.6 µM
same,TGI,[3],> 31.6 µM
same,TGI,[4],> 31.6 µM
same,TGI,[57],> 31.6 µM
same,TGI,[59],> 31.6 µM
same,TGI,[5],> 31.6 µM
same,TGI,[6],> 31.6 µM
same,TGI,[7],> 31.6 µM
same,TGI,[58],53 µM
same,TGI,[8],> 31.6 µM
same,TGI,[10],> 31.6 µM
same,TGI,[12],> 100 µM
same,TGI,[13],> 100 µM
same,TGI,[14],> 31.6 µM
same,TGI,[15],> 31.6 µM
same,TGI,[16],> 31.6 µM
same,TGI,[17],> 22.4 µM
same,TGI,[18],> 31.6 µM
same,TGI,[20],> 100 µM
same,TGI,[21],> 31.6 µM
same,TGI,[22],> 31.6 µM
same,TGI,[23],> 100 µM
same,TGI,[24],> 100 µM
same,TGI,[26],> 31.6 µM
same,TGI,[27],> 31.6 µM
same,TGI,[28],> 31.6 µM
same,TGI,[29],> 31.6 µM
same,TGI,[30],> 100 µM
same,TGI,[31],> 100 µM
same,TGI,[32],> 31 µM
same,TGI,[33],> 31.6 µM
same,TGI,[34],> 31.6 µM
same,TGI,[35],> 31.6 µM
same,TGI,[36],> 50 µM
same,TGI,[37],> 100 µM
same,TGI,[38],> 31.6 µM
same,TGI,[39],> 100 µM
same,TGI,[40],> 31.6 µM
same,TGI,[41],> 31.6 µM
same,TGI,[42],> 31.6 µM
same,TGI,[43],> 31.6 µM
same,TGI,[44],> 31.6 µM
same,TGI,[45],> 31.6 µM
same,TGI,[46],15.6 µM
same,TGI,[47],> 31.6 µM
same,TGI,[48],> 31.6 µM
same,TGI,[49],> 31.6 µM
same,TGI,[50],> 31.6 µM
same,TGI,[53],> 31.6 µM
same,TGI,[54],> 31.6 µM
same,TGI,[55],> 31.6 µM
same,TGI,[56],> 31.6 µM
